In patent US12370235B2, “Synthetic, non-natural antimicrobial peptides inspired by Staphylococcus auricularis delta toxin” (University of Saskatchewan, priority 2021, dated 2025):
≈ marks a conversion by molar mass, not a printed value. Square brackets hold non-standard residues; d marks the D form. Peptide text beside a SMILES is read from it.

Columns and labels:
[1] = tested on: MRSA ATCC 33592; experiment: SYTOX Green membrane integrity assay; format: cell-based, Staphylococcus aureus; settings: one fourth to four-fold the MIC
Method: (§1) Membrane disruption and depolarization are commonly reported mechanisms of AMP action. Two indirect assays that rely on fluorescent dyes were employed to assess the interaction of STIP3-29 and D-STIP3-29 with bacterial membranes. First, changes to SYTOX fluorescence was measured when MRSA ATCC 33592 was treated with increasing peptide concentrations ranging from one fourth to four-fold the MIC. […] Next, DiSC3(5), a cationic dye that binds to polarized membranes was used to report on possible depolarization related to AMP treatment. […] Thus, without wishing to be bound by theory, a more conservative explanation of the results is that the cationic peptides increase membrane permeability to SYTOX and that the like-charge of the AMPs to the reporter of polarization may confound the interpretation of the indirect assay. For example, the AMPs may simply displace the self-quenching DiSC3(5) molecules from the membrane surface without causing depolarization.

[2] = tested on: C. albicans Y537; experiment: MIC, YPD broth; format: cell-based, Candida albicans; settings: Table 8
[3] = tested on: C. albicans MYA-2876; experiment: MIC, YPD broth; format: cell-based, Candida albicans; settings: Table 8
Method in brief: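 Minimum inhibitory concentrations against Candida albicans were determined in YPD broth (10 g/L yeast extract, 20 g/L peptone, 20 g/L dextrose) using peptides of 95% purity. A 180 μl volume of diluted yeast was combined with 20 μl of peptide in a 2-fold dilution series in 96-well plates, with sterile water as control, then incubated standing overnight at 37° C.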

[4] = Circular dichroism spectroscopy; format: physicochemical; settings: CD, 50% (v/v) TFE
Method in brief: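 Secondary structure of peptides dissolved in water at 0.3–0.5 mg/mL was assessed by CD. Spectra were recorded from 180 to 260 nm at room temperature in a 0.1 cm quartz cuvette; water and 50% (v/v) TFE conditions were compared.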

[5] = tested on: S. aureus / MRSA (ATCC MP-2 panel); format: cell-based, Staphylococcus aureus; settings: in words
Method: In order to begin to characterize STIP3-1 and potential sites amenable to modification, an alanine scanning experiment was performed. A total of 16 peptides with single alanine substitutions were assessed to inform on the importance of individual residues to antimicrobial activity. […] Next a series of thirty STIP3-1 variants were designed, guided by the aforementioned alanine scan and a previous report that the central α-helical core of the S. aureus δ-toxin could be converted into AMP through the inclusion of additional lysine residues^39. The collection included ten members with single substitutions relative to STIP3-1 and others that incorporated a number of changes that were designed to increase overall and local cationic charge as well as hydrophobic character (Table 5). Each of the STIPs was screened, including STIP3-1 to STIP-31, for antibiotic activity against a methicillin-sensitive S. aureus test organism and a panel of 7 MRSA strains defined by distinct SCCmec genotypes (FIG. 2; ATCC MP-2).
Determination of minimum inhibitory concentrations. The MICs were measured for bioactive peptides identified from the initial screen. For bacterial studies, cation-adjusted Mueller Hinton (MH) broth was used as the growth medium whereas YPD was used for C. albicans. Bacterial cultures were diluted to a OD value of 6×10^−4 in MH broth and a 180 μl volume was mixed with 20 μl of peptide arrayed as 2-fold dilution series in a 96-well plate. For the positive control, 20 μl of sterile water was used. Plates were incubated as standing cultures overnight at 37° C. The lowest peptide concentration that resulted no observed microbial growth after an overnight treatment was defined as the MIC.

[6] = tested on: S. aureus ATCC BAA-42 (MRSA SCCmec type VI); experiment: MIC, broth dilution; format: cell-based, Staphylococcus aureus; settings: Table 5; STIP3 variants, highest concentration 100 μg/mL
Method in brief: (§2)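 Peptides (95% purity) were serially diluted 2-fold and mixed with bacteria diluted to OD 6×10^−4 in cation-adjusted Mueller Hinton broth. Standing cultures were incubated overnight at 37° C. MIC was the lowest peptide concentration with no observed growth.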

[7] = tested on: S. aureus ATCC BAA-44 (MRSA SCCmec type I); experiment: MIC, broth dilution; format: cell-based, Staphylococcus aureus; settings: Table 5; STIP3 variants, highest concentration 100 μg/mL
Method in brief: as §2

[8] = tested on: S. aureus ATCC 29213; experiment: MIC, broth dilution; format: cell-based, Staphylococcus aureus; settings: Table 5; STIP3 variants, highest concentration 100 μg/mL
Method in brief: as §2

[9] = tested on: S. aureus ATCC BAA-2094 (MRSA SCCmec type V); experiment: MIC, broth dilution; format: cell-based, Staphylococcus aureus; settings: Table 5; STIP3 variants, highest concentration 100 μg/mL
Method in brief: as §2

[10] = tested on: S. aureus ATCC BAA-1683 (MRSA SCCmec type IV); experiment: MIC, broth dilution; format: cell-based, Staphylococcus aureus; settings: Table 5; STIP3 variants, highest concentration 100 μg/mL
Method in brief: as §2

[11] = tested on: S. aureus ATCC BAA-41 (MRSA SCCmec type II); experiment: MIC, broth dilution; format: cell-based, Staphylococcus aureus; settings: Table 5; STIP3 variants, highest concentration 100 μg/mL
Method in brief: as §2

[12] = tested on: S. aureus ATCC 33592 (MRSA SCCmec type III); experiment: MIC, broth dilution; format: cell-based, Staphylococcus aureus; settings: Table 5; STIP3 variants, highest concentration 100 μg/mL
Method in brief: as §2

[13] = tested on: S. aureus ATCC BAA-2313 (MRSA SCCmec type XI); experiment: MIC, broth dilution; format: cell-based, Staphylococcus aureus; settings: Table 5; STIP3 variants, highest concentration 100 μg/mL
Method in brief: as §2

[14] = tested on: MRSA ATCC 33592; experiment: DiSC3(5) membrane polarization assay; format: cell-based, Staphylococcus aureus; settings: 1.56 to 25 μg/mL
Method: as §1

[15] = tested on: HeLa cells; format: cell-based; settings: 24 h, alamarBlue
Method: Peptide cytotoxicity. In vitro cytotoxicity was measured using the 3D EpiDerm skin tissues and HeLa Cells using a fluorescent reporter of cell viability, alamarBlue (ThermoFisher Scientific). 3D EpiDerm skin tissues (MatTek EPI-200-AFAB) were transferred to a 12 well plate containing 600 μL of AFAB-assay medium supplemented with 10% v/v alamarBlue. […] HeLa cells were seeded in a 96-well plate (2×10^4 cells/per well) and incubated overnight at 37° C. and 5% CO2 in a humidified incubator to prepare wells at ˜50% confluency of adherent cells. After the incubation, spent DMEM was removed and cells were washed with PBS. alamarBlue-containing medium was prepared by mixing Phenol Red-free DMEM with alamarBlue solution at a 9:1 ratio and a 180 μl volume was added to each well. Cells were treated with peptides varying from 3.25 to 200 μg/mL and then incubated for 24 h. The fluorescence intensities of treated cultures were normalized to values measured for an untreated control group. After the 24 h incubation period, alamarBlue fluorescence was measured at 590 nm upon excitation at 560 nm using Varioskan Lux plate reader (Thermo Scientific) plate reader.

CC[C@@H](C)[C@@H](NC(=O)[C@@H](Cc1c[nH]c2ccccc12)NC(=O)[C@@H](CCCCN)NC(=O)[C@H](NC(=O)[C@@H](CC(C)C)NC(=O)CNC(=O)CNC(=O)[C@H](NC(=O)[C@H](N)[C@H](C)O)C(C)C)C(C)C)C(=O)N[C@H](CC(C)C)C(=O)N[C@H](CCCCN)C(=O)N[C@@H](C(=O)N[C@@H](C(=O)N[C@H](CCCCN)C(=O)N[C@H](CCCCN)C(=O)N[C@H](Cc1ccccc1)C(=O)N[C@H](C)C(N)=O)C(C)C)[C@H](C)O [D-STIP3-29, TVGGLVKWILKTVKKFA-NH2] (H-[dT][dV]GG[dL][dV][dK][dW][dI][dL][dK][dT][dV][dK][dK][dF][dA]-NH2; N-terminus assumed)
SYTOX fluorescence change [1]: rapid and concentration dependent increase in SYTOX fluorescence | MIC C. albicans Y537 [2]: 50 µg/mL (≈ 26.5 µM) | MIC C. albicans MYA-2876 [3]: 50 µg/mL (≈ 26.5 µM) | α helicity (%) [4]: 47% | activity relative to the L-enantiomer [5]: just as active as the L-enantiomer | MIC S. aureus ATCC BAA 42 (VI) [6]: 6.25 µg/mL (≈ 3.31 µM) | MIC S. aureus ATCC BAA 44 (I) [7]: 12.5 µg/mL (≈ 6.62 µM) | MIC S. aureus ATCC 29213 [8]: 6.25 µg/mL (≈ 3.31 µM) | MIC S. aureus ATCC BAA 2094 (V) [9]: 6.25 µg/mL (≈ 3.31 µM) | MIC S. aureus ATCC BAA 1683 (IV) [10]: 6.25 µg/mL (≈ 3.31 µM) | MIC S. aureus ATCC BAA 41 (II) [11]: 6.25 µg/mL (≈ 3.31 µM) | MIC S. aureus ATCC 33592 (III) [12]: 6.25 µg/mL (≈ 3.31 µM) | MIC S. aureus ATCC BAA 2313 (XI) [13]: 6.25 µg/mL (≈ 3.31 µM) | DiSC3(5) fluorescence change [14]: dose-dependent increase in fluorescence | IC50, HeLa cell survival [15]: 39 ± 3 µg/mL (≈ 20.7 µM)
